Data reported in patent US20260166159A1, “KRAS G12D DEGRADATION AGENT, AND PREPARATION METHOD AND USE THEREFOR” (LEADINGTAC PHARMACEUTICAL (SHAOXING) CO., LTD., priority 2022, published 2026).

Key:
Format in all cases: cell-based
[1] = tested on: KRAS G12D mutant human pancreatic cancer cell HPAC; assay: 3D cell proliferation inhibition assay, HPAC; conditions: 168 h, 7 days, CTG
In short: (§1)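 Compound dilutions are added to low-adsorption wells, then cells at 5×10^2 cells/well. Final compound range is 10000–0.026 nM, with 0.2% DMSO. After 7 days at 37 °C with 5% CO2, CTG reagent is added and luminescence is read 60 min later. IC50 is fitted from inhibition relative to DMSO and medium controls.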

phosphorylated ERK = assay: KRAS G12D-mediated phosphorylated ERK inhibition assay (AlphaLISA), A427; conditions: Homo sapiens, A-427; A427 cells; class symbols; read-out: pERK (A427) IC50
Method: The relative amounts of phosphorylated ERK and total ERK in the samples were separately determined according to the test methods provided in the instructions of the AlphaLISA SureFire Ultra p-ERK 1/2 (Thr202/Tyr204) kit (PerkinElmer) and the AlphaLISA SureFire Ultra TotalERK 1/2 kit (PerkinElmer).
The experimental procedures for the assay of the phosphorylated ERK and total ERK were as follows: 10 μL of each sample was added to a 384-well plate (Greiner), and 5 μL of the prepared Acceptor Beads (PerkinElmer) mixed solution (containing 50× Acceptor Beads 615, Activation Buffer, and equal volumes of Reaction Buffer 1 and Reaction Buffer 2) was added to each well; and the plate was incubated at room temperature for 2 h. Then 5 μL of 1× Donor Beads (PerkinElmer) diluted with Dilution Buffer was added to each well, and the plate was incubated at room temperature overnight. After the incubation was completed, AlphaLISA signal values for the phosphorylated ERK and total ERK were separately measured on an EnVision microplate reader (PerkinElmer) in the AlphaScreen standard mode. The following formula was adopted: phosphorylated ERK correction value=phosphorylated ERK AlphaLISA signal value/total ERK AlphaLISA signal value. The relative ratio of the phosphorylated ERK for each sample was calculated. The percentage inhibition rates of the compounds on the phosphorylated ERK at each concentration were calculated by comparing the relative value of the phosphorylated ERK with that of the DMSO control well. Then non-linear curve fittings for logarithmic concentration-inhibition rate were performed by the GraphPad Prism 8 analysis software, and the IC50 values of the compounds on the inhibition of the phosphorylated ERK were obtained (Table 2).

[2] = tested on: KRAS G12D mutant human pancreatic cancer cell Panc 04.03; assay: 3D cell proliferation inhibition assay, Panc 04.03; conditions: 168 h, Panc 04.03, 7 days, CTG
In short: as §1

Q: How did the IC50 [1] turn out when `C#Cc1c(F)ccc2cc(O)cc(-c3ncc4c(N5CC6CCC(C5)N6)nc(OCC5(CN6CCN(CC7CCC8(CC7)CCN(C(=O)c7ccc(Cl)c(N9CCC(=O)NC9=O)c7)CC8)CC6)CC5)nc4c3F)c12` [Example 6, 1-(5-(9-((4-((1-(((4-(3,8-diazabicyclo[3.2.1]octan-3-yl)-7-(8-ethynyl-7-fluoro-3-hydroxynaphthalen-1-yl)-8-fluoropyrido[4,3-d]pyrimidin-2-yl)oxy)methyl)cyclopropyl)methyl)piperazin-1-yl)methyl)-3-azaspiro[5.5]undecane-3-carbonyl)-2-chlorophenyl)dihydropyrimidine-2,4(1H,3H)-dione] was run?
A: Its IC50 is 5.35 nM.

Q: And the IC50 (phosphorylated ERK)?
A: The IC50 was ≤ 50 nM.

Q: How did the IC50 [1] turn out when `C#Cc1c(F)ccc2cc(O)cc(-c3ncc4c(N5CC6CCC(C5)N6)nc(OCC5(CN6CCN(CC7CCC8(CC7)CCN(C(=O)c7ccc(C)c(N9CCC(=O)NC9=O)c7)CC8)CC6)CC5)nc4c3F)c12` [Example 36, 1-(5-(9-((4-((1-(((4-(3,8-diazabicyclo[3.2.1]octan-3-yl)-7-(8-ethynyl-7-fluoro-3-hydroxynaphthalen-1-yl)-8-fluoropyrido[4,3-d]pyrimidin-2-yl)oxy)methyl)cyclopropyl)methyl)piperazin-1-yl)methyl)-3-azaspiro[5.5]undecane-3-carbonyl)-2-methylphenyl)dihydropyrimidine-2,4(1H,3H)-dione] was run?
A: The IC50 was 1.19 nM.

Q: What about the IC50 (phosphorylated ERK) of the same molecule?
A: Its IC50 is ≤ 50 nM.

Q: What does the source list for `CCc1cccc2cc(O)cc(-c3ncc4c(N5CC6CCC(C5)N6)nc(OCC5(CN6CCN(CC7CCC8(CC7)CCN(C(=O)c7ccc(OC)c(N9CCC(=O)NC9=O)c7)CC8)CC6)CC5)nc4c3F)c12` [Example 20, 1-(5-(9-((4-((1-(((4-(3,8-diazabicyclo[3.2.1]octan-3-yl)-7-(8-ethyl-3-hydroxynaphthalen-1-yl)-8-fluoropyrido[4,3-d]pyrimidin-2-yl)oxy)methyl)cyclopropyl)methyl)piperazin-1-yl)methyl)-3-azaspiro[5.5]undecane-3-carbonyl)-2-methoxyphenyl)dihydropyrimidine-2,4(1H,3H)-dione]?
A: IC50 (phosphorylated ERK): ≤ 50 nM; IC50 ([2]; numeric values): 10.5 nM

Q: How did the IC50 [1] turn out when `CCc1c(F)ccc2cc(O)cc(-c3ncc4c(N5CC6CCC(C5)N6)nc(OCC5(CN6CCN(CC7CCC8(CC7)CCN(C(=O)c7ccc(OC)c(N9CCC(=O)NC9=O)c7)CC8)CC6)CC5)nc4c3F)c12` [Example 15, 1-(5-(9-((4-((1-(((4-(3,8-diazabicyclo[3.2.1]octan-3-yl)-7-(8-ethyl-7-fluoro-3-hydroxynaphthalen-1-yl)-8-fluoropyrido[4,3-d]pyrimidin-2-yl)oxy)methyl)cyclopropyl)methyl)piperazin-1-yl)methyl)-3-azaspiro[5.5]undecane-3-carbonyl)-2-methoxyphenyl)dihydropyrimidine-2,4(1H,3H)-dione] was run?
A: Its IC50 is 4.06 nM.

Q: What about the IC50 (phosphorylated ERK) of the same molecule?
A: Its IC50 is ≤ 50 nM.

Q: And the IC50 ([2]; class symbols)?
A: Its IC50 is ≤ 50 nM.

Q: What does the source list for `C#Cc1c(F)ccc2cc(O)cc(-c3ncc4c(N5CC6CCC(C5)N6)nc(OCC5(CN6CCN(CCCCC7CCC8(CC7)CCN(C(=O)c7ccc(Cl)c(N9CCC(=O)NC9=O)c7)CC8)CC6)CC5)nc4c3F)c12` [Example 31, 1-(5-(9-(4-(4-((1-(((4-(3,8-diazabicyclo[3.2.1]octan-3-yl)-7-(8-ethynyl-7-fluoro-3-hydroxynaphthalen-1-yl)-8-fluoropyrido[4,3-d]pyrimidin-2-yl)oxy)methyl)cyclopropyl)methyl)piperazin-1-yl)butyl)-3-azaspiro[5.5]undecane-3-carbonyl)-2-chlorophenyl)dihydropyrimidine-2,4(1H,3H)-dione]?
A: IC50 (phosphorylated ERK): ≤ 50 nM; IC50 ([2]; numeric values): 22.2 nM
